Data on 10 compounds can be found in patent US10202377B2, “3-(1H-benzo[D]imidazol-2-yl)-1H-pyrazolo[3,4-C]pyridine and therapeutic uses thereof” (Samumed, LLC, priority 2014, dated 2019).

What is called pEC50 is −log10 of the EC50, conventionally taken in molar units. In general, pIC50 refers to the negative decadic logarithm of the IC50, by convention in mol/L. A higher pIC50 goes with a low IC50.

The test system of experiment [1] is primary human fibroblasts derived from IPF patients (LL29 cells). In words: Inhibition of fibrosis (αSMA staining) in TGF-β1-treated primary human fibroblasts from IPF patients. The class given is cell-based. As to conditions: Fibroblast, 96 h, TGF-β1 20 ng/mL, 4 days. A digest of the protocol: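 LL29 IPF fibroblasts in F12 with 1% FBS were stimulated with TGF-β1 (20 ng/mL) and incubated 4 days at 37 °C. SYTOX-positive dead cells were excluded, and αSMA-positive cells were counted by immunostaining as % of total. Values were normalized to TGF-β1/DMSO wells on the same plate, and EC50 derived.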

The test system of experiment [2] is Wnt activity (Sp5-Luc reporter, SW480 colon carcinoma cells). In words: Sp5-Luc Wnt reporter gene screening assay in SW480 colon carcinoma cells. As to conditions: Homo sapiens.
Procedure: The screening assay for Wnt activity is described as follows.
SW480 colon carcinoma cells were transduced with a lentiviral vector expressing luciferase with a human Sp5 promoter consisting of a sequence of eight TCF/LEF binding sites. SW480 cells stably expressing the Sp5-Luc reporter gene and a hygromycin resistance gene were selected by treatment with 150 μg/ml of hygromycin for 7 days. These stably transduced SW480 cells were expanded in cell culture and used for all further screening activities. For Sp5-Luc reporter gene assays, the cells were plated at 10,000 cells/well in 96-well plates with growth medium containing 10% fetal calf serum and incubated overnight at 37° C. and 5% CO2. […] Compound transfer from serially diluted source plates to assay plates containing the cells was accomplished using a pintool (Multimek 96, Beckman equipped with V&P Scientific FP1S50H pins) based liquid handling protocol. This protocol used a slotted pin to transfer 50 nl of compound from a source plate well to an assay plate well containing 50 μl of cells in growth medium. […] Control wells received 50 nl of DMSO treatment for normalization and calculating IC50 values. The treated cells were incubated at 37° C. and 5% CO2 for an additional forty-two hours. Following incubation, the growth medium was removed and 50 μl of BrightGlo luminescence reagent (Promega) was added to each well of the 96-well assay plates. The plates were placed on an orbital shaker for 5 min and then luminescence was quantified on the Victor3 (Perkin Elmer) plate reader.
The subject of experiment [3] is primary human mesenchymal stem cells (hMSCs). In words: Chondrogenesis induction in primary human mesenchymal stem cells (nodule imaging, Rhodamine B/Nile Red). As to conditions: 6 days, dose at which the compound reached maximum chondrogenesis activity, dose range 10-2700 nM. The class given is cell-based. The procedure: The above synthesized compounds were screened using primary human mesenchymal stem cells (hMSCs) to determine their ability to induce chondrogenesis (process by which cartilage is developed).
Human Mesenchymal Stem Cell Culture: Primary human mesenchymal stem cells (hMSCs) were purchased from Lonza (Walkersville, Md.) and expanded in Mesenchymal Stem Cell Growth Media (Lonza). Cells between passage 3 and 6 were used for the experiments.
Compound Screening: Each compound was dissolved in DMSO as a 10 mM stock and used to prepare compound source plates. Serial dilution (1:3, 6-point dose-response curves from 2700 nM to 10 nM) and compound transfer was performed using the ECHO 550 (Labcyte, Sunnyvale, Calif.) into 96-well clear bottom assay plates (Greiner Bio-One) with appropriate DMSO backfill for a final DMSO concentration of 0.03%. hMSCs were plated at 20,000 cells/well in 250 μL/well Incomplete Chondrogenic Induction Medium (Lonza; DMEM, dexamethasone, ascorbate, insulin-transferrin-selenium [ITS supplement], gentamycin-amphotericin [GA-1000], sodium pyruvate, proline and L-glutamine). TGF-β3 (10 ng/mL) was used as a positive control for differentiation while negative control wells were treated with 75 nL DMSO for normalization and calculating EC50 values. Cells were incubated at 37° C. and 5% CO2 for 6 days. To image chondrogenic nodules, the cells were fixed using 4% formaldehyde (Electron Microscopy Sciences), and stained with 2 μg/mL Rhodamine B (Sigma-Aldrich) and 20 μM Nile Red (Sigma-Aldrich) [Johnson K., et. al, A Stem Cell-Based Approach to Cartilage Repair, Science, (2012), 336(6082), 717-721]. The nodules imaged (4 images per well at 4× magnification) by excitation at 531 nm and emission at 625 nm and quantified using the CellInsight CX5 (Thermo Scientific). Number of nodules in each well was normalized to the average of 3 DMSO treated wells on the same plate using Excel (Microsoft Inc.). The normalized averages (fold change over DMSO) of 3 replicate wells for each compound concentration were calculated. Due to solubility limitations of some of the compounds, curve fitting was incomplete leading to inaccurate EC50 determinations.
Using TGF-β3 as a positive control, the concentration of test compounds required to induce equivalent levels of chondrogenesis is reported. In addition, the maximum activity of each compound and the respective dose that each compound reached maximum chondrogenesis activity is reported.

pEC50, pIC50: −log10 of the molar value.

`Cc1ccncc1-c1cc2c(-c3nc4c(-c5cc(F)cc(CNS(C)(=O)=O)c5)cccc4[nH]3)n[nH]c2cn1` [Compound 421, N-(3-Fluoro-5-(2-(5-(4-methylpyridin-3-yl)-1H-pyrazolo[3,4-c]pyridin-3-yl)-1H-benzo[d]imidazol-4-yl)benzyl)methanesulfonamide] showed a pEC50 in experiment [1] of 8.05. In addition, the pIC50 in experiment [2] was 8.00. Besides, in experiment [3], the “Conc (nM) of Max. activity” value was 100 nM.
Compound `CN(C)Cc1cncc(-c2cc3c(-c4nc5c(N6CCCCC6)cccc5[nH]4)n[nH]c3cn2)c1` [Compound 169, N,N-dimethyl-1-(5-(3-(4-(piperidin-1-yl)-1H-benzo[d]imidazol-2-yl)-1H-pyrazolo[3,4-c]pyridin-5-yl)pyridin-3-yl)methanamine] showed a pEC50 in experiment [1] of 8.05. This compound also showed a pIC50 in experiment [2] of 7.55. In addition, the “Conc (nM) of Max. activity” value in experiment [3] came to 900 nM.
For `O=C(Nc1cncc(-c2cc3c(-c4nc5c(-c6cccs6)cccc5[nH]4)n[nH]c3cn2)c1)C1CC1` [Compound 331, N-(5-(3-(4-(Thiophen-2-yl)-1H-benzo[d]imidazol-2-yl)-1H-pyrazolo[3,4-c]pyridin-5-yl)pyridin-3-yl)cyclopropanecarboxamide] the same measures were 7.54, 7.76 and 300 nM.
The like results for `c1cncc(-c2cc3c(-c4nc5c(-c6cccnc6)cccc5[nH]4)n[nH]c3cn2)c1` [Compound 82, 5-(Pyridin-3-yl)-3-(4-(pyridin-3-yl)-1H-benzo[d]imidazol-2-yl)-1H-pyrazolo[3,4-c]pyridine] were, in that order, 8.05, 8.35 and 30 nM.
The like results for `c1cncc(-c2cc3c(-c4nc5ccccc5[nH]4)n[nH]c3cn2)c1` [Compound 238, 3-(1H-Benzo[d]imidazol-2-yl)-5-(pyridin-3-yl)-1H-pyrazolo[3,4-c]pyridine] were, in that order, 7.24, 8.11 and 100 nM.
Turning to `Fc1cccc(-c2cccc3[nH]c(-c4n[nH]c5cnc(-c6cn[nH]c6)cc45)nc23)c1` [Compound 939, 3-(4-(3-Fluorophenyl)-1H-benzo[d]imidazol-2-yl)-5-(1H-pyrazol-4-yl)-1H-pyrazolo[3,4-c]pyridine], the pEC50 in experiment [1] is 8.05. Besides, in experiment [2], the pIC50 is 7.60. Also, the “Conc (nM) of Max. activity” value in experiment [3] was determined as 30 nM.
The like results for `CC(C)(C)C(=O)Nc1cncc(-c2cc3c(-c4nc5c(-c6ccc(F)cc6)cccc5[nH]4)n[nH]c3cn2)c1` [Compound 34, N-(5-(3-(4-(4-Fluorophenyl)-1H-benzo[d]imidazol-2-yl)-1H-pyrazolo[3,4-c]pyridin-5-yl)pyridin-3-yl)pivalamide] were, in that order, 7.33, 7.51 and 2700 nM.
`CN1CCN(c2cccc3[nH]c(-c4n[nH]c5cnc(-c6cncc(N)c6)cc45)nc23)CC1` [Compound 211, 5-(3-(4-(4-Methylpiperazin-1-yl)-1H-benzo[d]imidazol-2-yl)-1H-pyrazolo[3,4-c]pyridin-5-yl)pyridin-3-amine] showed a pEC50 in experiment [1] of 6.21. The same compound showed a pIC50 in experiment [2] of 7.01. Also, in experiment [3], the “Conc (nM) of Max. activity” value is listed as 2700 nM.
The like results for `CC(=O)c1ccc(-c2cccc3[nH]c(-c4n[nH]c5cnc(-c6cncc(NC(=O)CC(C)C)c6)cc45)nc23)s1` [Compound 392, N-(5-(3-(4-(5-Acetylthiophen-2-yl)-1H-benzo[d]imidazol-2-yl)-1H-pyrazolo[3,4-c]pyridin-5-yl)pyridin-3-yl)-3-methylbutanamide] were, in that order, 6.57, 7.49 and 2700 nM.
For `Cc1ccc(-c2cccc3[nH]c(-c4n[nH]c5cnc(-c6cncc(N)c6)cc45)nc23)s1` [Compound 367, 5-(3-(4-(5-Methylthiophen-2-yl)-1H-benzo[d]imidazol-2-yl)-1H-pyrazolo[3,4-c]pyridin-5-yl)pyridin-3-amine] the same measures were 8.05, 8.46 and 30 nM.
